Reference: US8293783B2, “Use of artemisinin derivatives for the treatment of asthma and chronic obstructive pulmonary disease (COPD)” (National University of Singapore, priority 2009, dated 2012)

Experiments:
[1] = test system: OVA-induced inflammatory cell recruitment in BALB/c mice; test: BAL fluid total and differential cell counts in OVA-induced mouse asthma model; type: in vivo
Procedure: (§1) Female BALB/c mice, 6 to 8 weeks old (Interfauna, East Yorkshire, UK), were sensitized and challenged with OVA as described (24). Artesunate (3, 10, and 30 mg/kg; Sigma, St. Louis, Mo.) or vehicle (6% dimethyl sulfoxide [DMSO]) in 0.1 ml saline was given by intraperitoneal injections 2 hours before each OVA aerosol challenge. Saline aerosol was used as a negative control. Animal experiments were performed according to the Institutional guidelines for Animal Care and Use Committee of the National University of Singapore. Mice were anesthetized 24 hours after the last aerosol challenge and bronchoalveolar lavage (BAL) was performed as described (24). BAL fluid total and differential cell counts, and cytokine and chemokine levels were determined as described (24). Blood was collected by cardiac puncture, and serum levels of total IgE and OVA-specific IgE, IgG1, and IgG2a levels were determined as described (24).

[2] = test system: peripheral blood leukocytes; test: Flow cytometric analysis of peripheral blood leukocytes; type: in vivo, mouse; conditions: artesunate-treated vs saline-challenged, OVA-challenged and vehicle control mice; data not shown
Procedure: BAL fluid was collected 24 hours after the last OVA or saline aerosol challenge, and total and differential cell counts were performed. […] We have conducted flow cytometric analysis of peripheral blood leukocytes obtained from saline challenged, OVA-challenged, vehicle control, and artesunate-treated mice.

[3] = test system: OVA-induced lung tissue eosinophilia and mucus hypersecretion in BALB/c mice; test: Histologic analysis of lung tissue (H&E, PAS) in OVA-induced mouse asthma model; type: in vivo; conditions: 30 mg/kg, 24 h after last OVA challenge
Procedure: Female BALB/c mice, 6 to 8 weeks old (Interfauna, East Yorkshire, UK), were sensitized and challenged with OVA as described (24). Artesunate (3, 10, and 30 mg/kg; Sigma, St. Louis, Mo.) or vehicle (6% dimethyl sulfoxide [DMSO]) in 0.1 ml saline was given by intraperitoneal injections 2 hours before each OVA aerosol challenge. Saline aerosol was used as a negative control. Animal experiments were performed according to the Institutional guidelines for Animal Care and Use Committee of the National University of Singapore. Lungs were fixed in 10% neutral formalin, paraffinized, cut into 5-μm sections, and stained with hematoxylin and eosin (H&E) for examining cell infiltration and with periodic acid-Schiff stain (PAS) for measuring mucus production. Quantitative analysis was performed blinded as described (24). Quantitative analyses of inflammatory cell infiltration and mucus production in lung sections were performed as previously described (24). […] To determine the extent of mucus production, goblet cell hyperplasia in the airway epithelium was quantified blind using a 5-point grading system: 0, no goblet cells; 1, <25%; 2, 25-50%; 3, 50-75%; 4, >75%.

[4] = test system: OVA-induced BAL fluid cytokine and chemokine levels in BALB/c mice; test: BAL fluid cytokine and chemokine levels by ELISA in OVA-induced mouse asthma model; type: in vivo
Procedure: as §1

[5] = test system: OVA-induced serum Ig production in BALB/c mice; test: Serum Ig levels by ELISA in OVA-induced mouse asthma model; type: in vivo
Procedure: as §1

[6] = test system: thoracic lymph node cells; test: OVA-specific responses in thoracic lymph node cultures from treated mice; type: cell-based, mouse
Procedure: (§2) To determine the effects of artesunate on OVA-specific immune responses in lymphocytes, thoracic lymph node cells were prepared as described (24). Cells were exposed to […] OVA for 72 hours. Concanavalin A (Con A, 10 μg/ml) was used as a positive control. Supernatants from parallel triplicate cultures were analyzed for cytokine levels by ELISA. Normal human bronchial epithelial cells were cultured in optimized bronchial epithelial bulletkit medium with supplements (Lonza, Basel, Switzerland). Cells were pretreated with 10 μM artesunate or vehicle (0.01% DMSO) 4 hours before stimulation with […] epidermal growth factor (EGF). Total and nuclear proteins, and mRNA were extracted from cells at specified time intervals.

[7] = test system: OVA-induced AHR in BALB/c mice; test: Airway hyperresponsiveness (AHR) to methacholine in mechanically ventilated mice; type: in vivo, mouse; conditions: 30 mg/kg; OVA-challenged mice; methacholine 0.5-8.0 mg/ml
Procedure: Female BALB/c mice, 6 to 8 weeks old (Interfauna, East Yorkshire, UK), were sensitized and challenged with OVA as described (24). Artesunate (3, 10, and 30 mg/kg; Sigma, St. Louis, Mo.) or vehicle (6% dimethyl sulfoxide [DMSO]) in 0.1 ml saline was given by intraperitoneal injections 2 hours before each OVA aerosol challenge. Saline aerosol was used as a negative control. […] Mice were anesthetized and tracheotomy was performed as described (24). The trachea was intubated with a cannula that was connected to the pneumotach, ventilator and nebulizer. Airway resistance (RI) and dynamic compliance (Cdyn) in response to increasing concentrations of nebulized mechacholine (0.5-8.0 mg/ml) were recorded using a whole-body plethysmograph chamber (Buxco, Sharon, Conn.) as described (24). Results are expressed as a percentage of the respective basal values in response to phosphate-buffered saline (PBS).

[8] = test system: OVA-induced inflammatory gene expression in lung tissues; test: Lung mRNA expression of inflammatory genes (RT-PCR); type: in vivo, mouse; conditions: 30 mg/kg pretreatment; OVA-challenged mice
Procedure: (§3) Female BALB/c mice, 6 to 8 weeks old (Interfauna, East Yorkshire, UK), were sensitized and challenged with OVA as described (24). Artesunate (3, 10, and 30 mg/kg; Sigma, St. Louis, Mo.) or vehicle (6% dimethyl sulfoxide [DMSO]) in 0.1 ml saline was given by intraperitoneal injections 2 hours before each OVA aerosol challenge. Saline aerosol was used as a negative control. Animal experiments were performed according to the Institutional guidelines for Animal Care and Use Committee of the National University of Singapore.
(§4) Lung and cell culture protein lysates ([…] per lane) were separated by 10% SDS-PAGE and immunoblots were developed as described (24). Immunoblots were probed with anti-Akt, anti-phospho-Akt (Ser473), anti-tuberin, anti-phosphotuberin (Ser1462), anti-p70S6K, anti-phospho-p70S6K (Ser389), anti-4E-BP1, anti phospho-4E-BP1 (Ser65), and anti-β-actin antibodies (Cell Signaling Technology, Beverly, Mass.). Proteins were separated by 10% SDSPAGE, probed with anti-Akt, anti-phospho-Akt (Ser473), anti-tuberin, antiphospho-tuberin (Ser1462), anti-p 70S6K, anti-phospho-p70S6K (Ser389), anti-4EBP1, and anti-phospho-4E-BP1 (Ser65), and developed by enhanced chemiluminescence reagent. β-actin was used as an internal control. The experiments were repeated for three times. Primers for inflammatory genes are shown in Table 1 and mRNA expression was analyzed as described (24). Nuclear proteins were analyzed for NF-κB DNA-binding activity using TransAM NF-κB transcription factor assay kit (Active Motif, Carlsbad, Calif.). Total mRNA was extracted using TriZol reagent and the PCR products were separated in a 2% agarose gel visualized under UV light. β-actin was used as an internal control. The experiments were repeated for three times

[9] = test system: PI3K/Akt signaling pathway; test: Immunoblotting of PI3K/Akt phosphorylation cascade in lung tissues; type: in vivo, mouse; conditions: 30 mg/kg; OVA-challenged mice; to the basal levels
Procedure: as §3, §4

[10] = test system: p65 NF-κB; test: Nuclear p65 NF-κB DNA-binding activity in lung tissues (TransAM ELISA kit); type: in vivo, mouse; conditions: 30 mg/kg; to basal level
Procedure: as §3
(§5) Lung and cell culture protein lysates ([…] per lane) were separated by 10% SDS-PAGE and immunoblots were developed as described (24). Immunoblots were probed with anti-Akt, anti-phospho-Akt (Ser473), anti-tuberin, anti-phosphotuberin (Ser1462), anti-p70S6K, anti-phospho-p70S6K (Ser389), anti-4E-BP1, anti phospho-4E-BP1 (Ser65), and anti-β-actin antibodies (Cell Signaling Technology, Beverly, Mass.). […] Primers for inflammatory genes are shown in Table 1 and mRNA expression was analyzed as described (24). Nuclear proteins were analyzed for NF-κB DNA-binding activity using TransAM NF-κB transcription factor assay kit (Active Motif, Carlsbad, Calif.). […]

[11] = test system: PI3K/Akt signaling pathway; test: Immunoblotting of EGF-stimulated normal human bronchial epithelial cells; type: cell-based; conditions: 10 μM artesunate, pretreated 4 h; EGF 5, 15 and 30 min
Procedure: as §2, §4

[12] = test system: p65 NF-κB; test: p65 NF-κB DNA-binding activity in EGF-stimulated normal human bronchial epithelial cells; type: cell-based; conditions: 10 μM artesunate; EGF 30 min
Procedure: as §2, §5

[13] = test system: normal human bronchial epithelial cells; test: Cytokine mRNA expression in EGF-stimulated normal human bronchial epithelial cells; type: cell-based; conditions: 10 μM artesunate; EGF 12 hours
Procedure: as §2, §4

[14] = test system: PI3K/Akt signaling pathway; test: TNF-α-induced signalling in normal human bronchial epithelial cells; type: cell-based
[15] = test system: human rheumatoid arthritis fibroblast-like synoviocytes; conditions: TNF-α-stimulated; cited from earlier work
[16] = test system: macrophages; conditions: cited from earlier work
[17] = test system: phosphoinositide 3-kinase (PI3K)/Akt signaling pathway; conditions: cited from earlier work
[18] = 3, 10 and 30 mg/kg i.p. 2 h before each OVA challenge, 24 h after last challenge, dose-dependent, vs DMSO vehicle control
[19] = 3, 10, 30 mg/kg, dose-dependent, to a lesser extent than IL-13 and eotaxin, vs DMSO control
[20] = 3, 10, 30 mg/kg, dose-dependent, vs DMSO control
[21] = mice pretreated with 30 mg/kg, cells cultured 72 h with OVA, vs DMSO

SMILES: C[C@H]1[C@H](OC(=O)CCC(=O)O)O[C@@H]2O[C@@]3(C)CC[C@H]4[C@H](C)CC[C@@H]1[C@@]24OO3 [Artesunate, artesunate]
- eosinophil count in BAL fluid [1, 18]: drastically decreased
- total cell count in BAL fluid [1, 18]: drastically decreased
- lymphocyte count in BAL fluid ([1]; OVA-challenged mice): significant drop
- percentages of CD3+, CD4+, CD8+ T cells, B cells, NK cells, neutrophils and monocytes in peripheral blood [2]: Similar
- OVA-induced mucus hypersecretion (PAS) [3]: significantly halted
- eosinophil-rich leukocyte infiltration in lung tissue (H&E) ([3]; vs DMSO control): markedly diminished
- IL-4 level in BAL fluid [4, 19]: reduced
- IL-5 level in BAL fluid [4, 19]: reduced
- IL-13 level in BAL fluid [4, 20]: drastically reduced
- eotaxin level in BAL fluid [4, 20]: drastically reduced
- IFN-γ level in BAL fluid ([4]; 10 and 30 mg/kg): up-regulated
- serum total IgE level ([5]; 24 h after last OVA aerosol challenge): no effect
- serum OVA-specific IgG2a level ([5]; OVA-challenged mice): no effects
- serum OVA-specific IgE level ([5]; even at the lowest dose (3 mg/kg)): strongly suppressed
- serum OVA-specific IgG1 level ([5]; suppressed to a lesser extent than OVA-specific IgE): significant effects at higher dose
- in vitro OVA-specific IL-4 production [6, 21]: significantly (P<0.05) lowered
- in vitro OVA-specific IL-5 production [6, 21]: significantly (P<0.05) lowered
- in vitro OVA-specific IL-13 production [6, 21]: significantly (P<0.05) lowered
- in vitro OVA-specific IFN-γ production ([6]; mice treated with 30 mg/kg, cells cultured 72 h with OVA): elevated
- Con A-induced production of IL-4, IL-5, IL-13 and IFN-γ ([6]; parallel cultures, Con A 10 μg/ml, data not shown): not affected
- dynamic compliance (Cdyn) in response to methacholine aerosol [7]: restored
- lung/airway resistance (RI) in response to methacholine aerosol [7]: dramatically reduced
- lung AMCase mRNA level [8]: strong suppression
- lung E-selectin mRNA level [8]: strong suppression
- lung ICAM-1 mRNA level [8]: strong suppression
- lung IL-17 mRNA level [8]: strong suppression
- lung IL-33 mRNA level [8]: strong suppression
- lung Muc5ac mRNA level [8]: strong suppression
- lung TSLP mRNA level [8]: strong suppression
- lung VCAM-1 mRNA level [8]: strong suppression
- lung YKL-40 mRNA level [8]: strong suppression
- lung Ym-2 mRNA level [8]: strong suppression
- lung iNOS mRNA level [8]: strong suppression
- phosphorylation of 4E-BP1 in lung tissues [9]: markedly reduced
- phosphorylation of Akt in lung tissues [9]: markedly reduced
- phosphorylation of p70S6K in lung tissues [9]: markedly reduced
- phosphorylation of tuberin in lung tissues [9]: markedly reduced
- OVA-induced NF-κB transactivation (p65 DNA-binding) in lung tissues [10]: significantly suppressed
- EGF-induced phosphorylation of 4E-BP1 [11]: markedly inhibited
- EGF-induced phosphorylation of Akt [11]: markedly inhibited
- EGF-induced phosphorylation of p70S6K [11]: markedly inhibited
- EGF-induced phosphorylation of tuberin [11]: markedly inhibited
- EGF-induced NF-κB transactivation (DNA binding activity) [12]: markedly inhibited
- EGF-induced up-regulation of IL-6 mRNA expression [13]: noticeably blocked
- EGF-induced up-regulation of IL-8 mRNA expression [13]: noticeably blocked
- EGF-induced up-regulation of MCP-1 mRNA expression [13]: noticeably blocked
- EGF-induced up-regulation of RANTES mRNA expression [13]: noticeably blocked
- TNF-α-induced NF-κB DNA binding activity [14]: inhibited
- TNF-α-induced phosphorylation of Akt [14]: inhibited
- TNF-α-induced phosphorylation of p70 S6 kinase [14]: inhibited
- TNF-α-induced phosphorylation of phosphoinositide 3-kinase (PI3K) [14]: inhibited
- production of IL-1β [15]: block
- production of IL-6 [15]: block
- production of IL-8 [15]: block
- lipopolysaccharide-induced production of IL-6 [16]: inhibits
- lipopolysaccharide-induced production of TNF-α [16]: inhibits
- lipopolysaccharide-induced production of nitric oxide (NO) [16]: inhibits
- expression of TLR9 ([16]; lipopolysaccharide-induced): inhibits
- expression of toll-like receptor 4 (TLR4) ([16]; lipopolysaccharide-induced): inhibits
- activity against the PI3K/Akt signaling pathway [17]: strong inhibitory activity
